# Assay results published in patent US10287251B2, “Pyrazole derivative or pharmaceutically acceptable salt thereof” (KISSEI PHARMACEUTICAL CO., LTD., priority 2015, dated 2019).
# Target: T1, TRPM8 (Rattus norvegicus, UniProt Q8R455)
# T1 construct: from tissue; host or cells: whole animal, female SD rats (in vivo)
# Assay: Confirmation test of inhibitory effects on icilin-induced wet-dog shakes
# Assay type: in vivo
# Settings: female SD rats, oral dose 0.3 mg/kg, icilin 1 mg/kg i.p. 1 hour after dosing, shakes counted for 5 minutes
# Source text: Further, TRPM8 inhibitory activity can be evaluated by the efficacy inhibiting the wet-dog shake action which is induced by the administration of Icilin, TRPM8 agonist. Furthermore, an effect on overactive bladder (OAB) can be evaluated by an elongation of micturition interval against overactive bladder induced by acetic acid in accordance with a similar method described in J. Urol., 2001, 166, 1142.
# Confirmation Test of Inhibitory Effects on Icilin-induced Wet-dog Shakes
# Test compounds were dissolved in dimethylacetamide (wako), and 0.5% methylcellulose solution (wako) was added to make the solution or suspension containing 5% of dimethylacetatnide. At a dose of 0.3 to 10 mg/kg/5mL of test compounds were orally administered to female SD rats. After 1 hour, wet-dog shakes were induced by the intraperitoneal injection of icilin (1 mg/kg) which was dissolved in polyethylene glycol 400 (wako). From 5 minutes after the administration of icilin, wet-dog shakes were counted for 5 minutes. For control example, vehicle (a mixture of dimethylacetamide (wako): 0.5% methylcellulose (wako)=5:95) was administrated similarly, and the number of wet-dog shakes was counted in the same manner. A percent inhibition of wet-dog shakes by test compound was calculated from the following formula: [1-(test compound wet-dog shake count/vehicle wet-dog shake count)]×100.
# T1 sequence (Q8R455 whole entry): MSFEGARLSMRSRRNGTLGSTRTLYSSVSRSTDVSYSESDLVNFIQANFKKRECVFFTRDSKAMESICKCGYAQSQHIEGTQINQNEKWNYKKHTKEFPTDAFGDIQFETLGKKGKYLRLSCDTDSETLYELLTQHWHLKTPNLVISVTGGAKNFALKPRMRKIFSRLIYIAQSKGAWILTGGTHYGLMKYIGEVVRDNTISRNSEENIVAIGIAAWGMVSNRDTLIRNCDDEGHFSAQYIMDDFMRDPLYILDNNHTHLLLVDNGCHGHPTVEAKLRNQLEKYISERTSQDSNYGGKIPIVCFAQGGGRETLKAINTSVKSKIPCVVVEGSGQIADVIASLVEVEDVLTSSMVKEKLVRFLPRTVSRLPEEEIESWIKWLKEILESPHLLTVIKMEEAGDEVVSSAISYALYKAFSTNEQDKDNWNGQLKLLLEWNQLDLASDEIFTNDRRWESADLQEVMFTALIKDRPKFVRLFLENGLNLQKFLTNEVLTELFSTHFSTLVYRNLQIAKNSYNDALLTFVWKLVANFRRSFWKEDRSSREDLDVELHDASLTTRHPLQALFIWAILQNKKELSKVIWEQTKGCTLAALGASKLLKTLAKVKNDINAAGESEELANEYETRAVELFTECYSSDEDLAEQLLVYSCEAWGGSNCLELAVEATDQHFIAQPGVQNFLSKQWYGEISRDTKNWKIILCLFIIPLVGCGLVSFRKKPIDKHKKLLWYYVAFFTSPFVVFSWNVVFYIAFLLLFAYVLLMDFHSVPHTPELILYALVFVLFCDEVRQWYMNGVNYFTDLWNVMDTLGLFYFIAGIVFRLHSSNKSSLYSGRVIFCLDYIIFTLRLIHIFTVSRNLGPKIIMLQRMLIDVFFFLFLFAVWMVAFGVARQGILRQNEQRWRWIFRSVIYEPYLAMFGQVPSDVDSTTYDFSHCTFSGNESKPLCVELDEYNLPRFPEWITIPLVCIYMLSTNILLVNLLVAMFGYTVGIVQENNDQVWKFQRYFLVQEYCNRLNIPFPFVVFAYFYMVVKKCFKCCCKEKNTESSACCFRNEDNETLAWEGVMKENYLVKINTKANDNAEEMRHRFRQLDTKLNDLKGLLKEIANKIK
row,% inhibition of Wet-Dog Shake [%],SMILES
1,56,CO[C@H](CO)[C@@H](Cc1ncccc1F)NC(=O)c1cccc(F)c1-c1cc(-c2ccc(F)cc2)[nH]n1 [Example 27-20]
2,62,CO[C@H](CO)[C@@H](Cn1nccn1)NC(=O)c1cccc(F)c1-c1n[nH]c(-c2ccc(F)cc2)c1F [Example 27-30]
3,98,CO[C@H](CO)[C@@H](Cc1ccccn1)NC(=O)c1ccccc1-c1n[nH]c(-c2ccc(F)cc2)c1F [Example 43-5]

# Same assay, conditions: female SD rats, oral dose 1 mg/kg, icilin 1 mg/kg i.p. 1 hour after dosing, shakes counted for 5 minutes
row,% inhibition of Wet-Dog Shake [%],SMILES
1,56,O=C(N[C@@H]([C@H](O)CO)C(F)(F)c1ccccn1)c1cccc(F)c1-c1cc(-c2ccc(F)cc2)[nH]n1 [Example 1-229]
2,59,O=C(N[C@@H](CO)C(F)(F)c1ccccn1)c1cccc(F)c1-c1cc(-c2ccc(F)cc2)[nH]n1 [Example 1-230]
3,73,CO[C@H](CO)[C@@H](Cc1ncccn1)NC(=O)c1cccc(F)c1-c1cc(-c2ccc(Cl)cc2)[nH]n1 [Example 1-242]
4,55,O=C(N[C@H](Cn1cccn1)[C@H](O)CF)c1cccc(F)c1-c1cc(-c2ccc(F)cc2)[nH]n1 [Example 1-245]
5,72,COC[C@@H](O)[C@@H](Cc1ccccn1)NC(=O)c1cccc(F)c1-c1cc(-c2ccc(F)cc2)[nH]n1 [Example 27-4]
6,86,CO[C@H](CO)[C@@H](Cc1ncccn1)NC(=O)c1cccc(F)c1-c1n[nH]c(-c2ccc(F)cc2)c1F [Example 27-18]
7,80,CO[C@H](CO)[C@@H](Cc1nccs1)NC(=O)c1cccc(F)c1-c1cc(-c2ccc(F)cc2)[nH]n1 [Example 27-19]
8,32,CO[C@H](CO)[C@@H](Cc1cscn1)NC(=O)c1cccc(F)c1-c1cc(-c2ccc(F)cc2)[nH]n1 [Example 27-21]
9,100,CO[C@H](CO)[C@@H](Cn1nccn1)NC(=O)c1cccc(F)c1-c1cc(-c2ccc(F)cc2)[nH]n1 [Example 27-22]
10,62,"O=C(N[C@@H](CCO)Cc1ccccn1)c1cccc(F)c1-c1n[nH]c(-c2ccc(F)cc2)c1F [Example 28-1, 3-Fluoro-2-[4-fluoro-5-(4-fluorophenyl)-1H-pyrazol-3-yl]-N-[(2R)-4-hydroxy-1-(pyridin-2-yl)butan-2-yl]benzamide]"
11,88,CC(C)(O)[C@@H](Cc1ccccn1)NC(=O)c1cccc(F)c1-c1n[nH]c(-c2ccc(F)cc2)c1F [Example 33-2]

# Same assay, conditions: female SD rats, oral dose 3 mg/kg, icilin 1 mg/kg i.p. 1 hour after dosing, shakes counted for 5 minutes
row,SMILES,% inhibition of Wet-Dog Shake [%]
1,O=C(N[C@H](Cn1cccn1)[C@H](O)CO)c1cccc(F)c1-c1cc(-c2ccc(F)cc2)[nH]n1 [Example 1-226],53
2,C[C@@](O)(CO)[C@@H](Cc1ccccn1)NC(=O)c1ccccc1-c1cc(-c2ccc(F)cc2)[nH]n1 [Example 1-228],97
3,O=C(N[C@@H](CO)C(F)c1ccccn1)c1cccc(F)c1-c1cc(-c2ccc(F)cc2)[nH]n1 (stereo partly shown) [Example 1-231],88
4,CC(O)(c1ccccn1)[C@H](CO)NC(=O)c1cccc(F)c1-c1cc(-c2ccc(F)cc2)[nH]n1 (stereo partly shown) [Example 1-241],100
5,"C[C@@](Cc1ccccc1)(NC(=O)c1cccc(F)c1-c1cc(-c2ccc(F)cc2)[nH]n1)C(N)=O [Example 24-1, (2S)-2-{3-Fluoro-2-[5-(4-fluorophenyl)-1H-pyrazol-3-yl]benzoylamino}-2-methyl-3-phenylpropanamide]",71
6,C[C@@](Cc1ccccc1)(NC(=O)c1ccccc1-c1cc(-c2ccc(F)cc2)[nH]n1)C(N)=O [Example 24-3],46
7,C[C@](CCO)(Cc1ccccn1)NC(=O)c1cccc(F)c1-c1cc(-c2ccc(F)cc2)[nH]n1 [Example 24-4],31
8,C[C@@](Cc1ccccn1)(NC(=O)c1cccc(F)c1-c1cc(-c2ccc(F)cc2)[nH]n1)C(N)=O [Example 24-7],56
9,"O=C(NC(CCO)Cc1ccccn1)c1cccc(F)c1-c1cc(-c2ccc(F)cc2)[nH]n1 (stereo not shown) [Example 26-1, 3-Fluoro-2-[5-(4-fluorophenyl)-1H-pyrazol-3-yl]-N-[4-hydroxy-1-(pyridin-2-yl)butan-2-yl]benzamide]",89
10,O=C(NC(CCO)Cc1ccccn1)c1ccccc1-c1cc(-c2ccc(F)cc2)[nH]n1 (stereo not shown) [Example 26-2],69
11,COC[C@@H](O)[C@@H](Cc1ccccn1)NC(=O)c1cccc(Cl)c1-c1cc(-c2ccc(F)cc2)[nH]n1 [Example 27-5],52
12,CO[C@H](CO)[C@@H](Cc1ncccc1C#N)NC(=O)c1cccc(F)c1-c1cc(-c2ccc(F)cc2)[nH]n1 [Example 27-16],56
13,CO[C@@H](CO)[C@@H](Cn1cccn1)NC(=O)c1cccc(F)c1-c1cc(-c2ccc(F)cc2)[nH]n1 [Example 27-17],86
14,CO[C@@H](CO)[C@@H](Cn1cccn1)NC(=O)c1cccc(F)c1-c1n[nH]c(-c2ccc(F)cc2)c1F [Example 27-24],99
15,CO[C@H](CO)[C@@H](Cn1cc(Cl)cn1)NC(=O)c1cccc(F)c1-c1cc(-c2ccc(F)cc2)[nH]n1 [Example 27-29],47
16,"O=C(N[C@H](Cc1ncccn1)[C@@H](O)CO)c1cccc(F)c1-c1cc(-c2ccc(F)cc2)[nH]n1 [Example 31-1, N-[(2R,3R)-3,4-Dihydroxy-1-(pyrimidin-2-yl)butan-2-yl]-3-fluoro-2-[5-(4-fluorophenyl)-1H-pyrazol-3-yl]benzamide]",36
17,"CC(C)(O)[C@@H](Cc1ccccn1)NC(=O)c1cccc(F)c1-c1cc(-c2ccc(Cl)cc2)[nH]n1 [Example 34-1HP, 2-[-5-(4-Chlorophenyl)-1H-pyrazol-3-yl]-3-fluoro-N-[(2R)-3-hydroxy-3-methyl-1-(pyridin-2-yl)butan-2-yl]benzamide]",92

# More lines, now with the values ahead:
row,% inhibition of Wet-Dog Shake [%],SMILES
1,100,"CC(C)(O)[C@@H](Cc1ccccn1)NC(=O)c1cccc(F)c1-c1cc(-c2ccc(F)cc2)[nH]n1 [Example 33-1, 3-Fluoro-2-[-5-(4-fluorophenyl)-1H-pyrazol-3-yl]-N-[(2R)-3-hydroxy-3-methyl-1-(pyridin-2-yl)butan-2-yl]benzamide]"
2,32,CC(C)(O)[C@@H](Cc1ccccn1)NC(=O)c1cccc(Cl)c1-c1cc(-c2ccc(F)cc2)[nH]n1 [Example 33-3]
3,42,"CC(CO)(CO)[C@@H](Cc1ccccn1)NC(=O)c1cccc(F)c1-c1cc(-c2ccc(Cl)cc2)[nH]n1 [Example 35-1, 2-[5-(4-Chlorophenyl)-1H-pyrazol-3-yl]-3-fluoro-N-[(2R)-4-hydroxy-3-(hydroxymethyl)-3-methyl-1-(pyridin-2-yl)butan-2-yl]benzamide]"
4,69,O=C(N[C@H](Cc1ccccn1)C(CO)CO)c1cccc(F)c1-c1cc(-c2ccc(F)cc2)[nH]n1 [Example 35-3]
5,39,"O=C(N[C@@H](CCO)Cc1ccccn1)c1cccc(Cl)c1-c1cc(-c2ccc(F)cc2)[nH]n1 [Example 36-1, 3-Chloro-2-[5-(4-fluorophenyl)-1H-pyrazol-3-yl]-N-[(2R)-4-hydroxy-1-(pyridin-2-yl)butan-2-yl]benzamide]"
6,72,C[C@@](CO)(Cc1ccccn1)NC(=O)c1cccc(F)c1-c1cc(-c2ccc(F)cc2)[nH]n1 [Example 36-2]
7,38,"NC(=O)[C@@H](Cc1ccccn1)NC(=O)c1cccc(F)c1-c1cc(-c2ccc(F)cc2)[nH]n1 [Example 37-1, (2R)-2-{3-Fluoro-2-[-5-(4-fluorophenyl)-1H-pyrazol-3-yl]benzoylamino}-3-(pyridin-2-yl)propanamide]"
8,50,O=C(N[C@@H](CO)Cc1ncccc1Cl)c1cccc(F)c1-c1cc(-c2ccc(F)cc2)[nH]n1 [Example 39-2]
9,100,CO[C@@H](CO)[C@@H](Cc1ccccn1)NC(=O)c1cccc(F)c1-c1cc(-c2ccc(F)cc2)[nH]n1 [Example 43-2]
10,77,CO[C@H](CO)[C@@H](Cc1ccccn1)NC(=O)c1cccc(Cl)c1-c1cc(-c2ccc(F)cc2)[nH]n1 [Example 43-4]
11,49,COC(c1ccccn1)[C@H](CO)NC(=O)c1cccc(F)c1-c1cc(-c2ccc(F)cc2)[nH]n1 (stereo partly shown) [Example 43-6]
12,89,COC(c1ccccn1)[C@H](CCO)NC(=O)c1cccc(F)c1-c1cc(-c2ccc(F)cc2)[nH]n1 (stereo partly shown) [Example 43-9]
13,88,COC(c1ccccn1)[C@H](CO)NC(=O)c1cccc(F)c1-c1cc(-c2ccc(F)cc2)[nH]n1 (stereo partly shown) [Example 43-11]

# Same assay, conditions: female SD rats, oral dose 10 mg/kg, icilin 1 mg/kg i.p. 1 hour after dosing, shakes counted for 5 minutes
row,% inhibition of Wet-Dog Shake [%],SMILES
1,70,"O=C(NCCc1ccccn1)c1cccc(OC(F)(F)F)c1-c1cc(-c2ccccc2)[nH]n1 [Example 4-1, 2-(5-Phenyl-1H-pyrazol-3-yl)-N-[2-(pyridin-2-yl)ethyl]-3-trifluoromethoxybenzamide]"
2,51,NC[C@@H](Cc1ccccn1)NC(=O)c1ccccc1-c1cc(-c2ccc(F)c(F)c2)[nH]n1 [Example 16-11]
